Assay [1] deals with Lb. paracasei E3.1 harboring the empty vector. The assay can be described thus: Growth of Lb. paracasei E3.1 (empty vector) in MRS with nisin, OD600. The class given is cell-based, Lactobacillus paracasei. The conditions noted are these: MRS supplemented with 500 ppm of nisin; empty vector strain; FIG. 1. The protocol: (§1) Resulting Lb. paracasei strains (±the nisin resistance construct) were grown in MRS (no nisin) and MRS supplemented with 500 ppm of nisin. The OD600 was monitored. When nisin was absent from the media both strains grew identically, indicating no deleterious effect of NisIEFG expression (FIG. 1).

Assay [2] has as its system Lb. paracasei E3.1 expressing pDW2-P5-nisIEFG. The assay can be described thus: Growth of Lb. paracasei E3.1 expressing the nisin autoimmunity construct in MRS with nisin, OD600. The class given is cell-based, Lactobacillus paracasei. The conditions noted are these: MRS supplemented with 500 ppm of nisin; strain expressing pDW2-P5-nisIEFG; FIG. 1. On the procedure:
as §1

The source of these data is patent US11999987B2, “Bacterial cocultures expressing a bacteriocin system” (Lallemand Hungary Liquidity Management LLC, priority 2020, dated 2024).

Take nisin: the “growth (OD600) in the presence of nisin” value in assay [1] was “completely inhibited”. For the same substance, the “growth rate (OD600) in the presence of nisin” value in assay [2] is “only a minimal decrease in growth rate”.
